These compounds were tested against T1, Itk (Homo sapiens, UniProt Q08881) (assay: ITK Inhibition Assay (AlphaScreen)). Conditions: Ki(app); 100 μM ATP, 2 μM biotinylated SAM68 peptide, 30 nM Itk, 25° C.
T1 sequence (Q08881 1-620): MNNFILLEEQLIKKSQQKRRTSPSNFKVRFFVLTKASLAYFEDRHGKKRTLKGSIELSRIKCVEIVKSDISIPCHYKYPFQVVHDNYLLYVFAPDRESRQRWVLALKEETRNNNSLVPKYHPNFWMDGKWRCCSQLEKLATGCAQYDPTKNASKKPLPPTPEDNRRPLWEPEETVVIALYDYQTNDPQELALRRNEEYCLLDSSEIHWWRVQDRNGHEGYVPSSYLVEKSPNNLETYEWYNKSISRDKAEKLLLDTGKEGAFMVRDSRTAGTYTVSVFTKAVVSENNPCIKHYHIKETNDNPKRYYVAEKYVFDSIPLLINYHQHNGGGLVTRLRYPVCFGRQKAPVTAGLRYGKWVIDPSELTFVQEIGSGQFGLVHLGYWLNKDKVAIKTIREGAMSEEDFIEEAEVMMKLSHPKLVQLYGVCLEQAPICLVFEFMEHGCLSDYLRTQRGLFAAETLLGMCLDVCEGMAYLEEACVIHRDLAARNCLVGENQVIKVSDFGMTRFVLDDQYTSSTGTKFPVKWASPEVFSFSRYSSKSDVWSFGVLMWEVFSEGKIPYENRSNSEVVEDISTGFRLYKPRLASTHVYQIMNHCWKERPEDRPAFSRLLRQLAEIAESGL
Format: biochemical
Method: Compounds were screened for their ability to inhibit Itk using an AlphaScreen™ phosphotyrosine assay at Vertex Pharmaceuticals. Assays were carried out in a mixture of 20 mM MOPS (pH 7.0), 10 mM MgCl2, 0.1% BSA and 1 mM DTT. Final substrate concentrations in the assay were 100 μM ATP (Sigma Chemicals) and 2 μM peptide (Biotinylated SAM68 Δ332-443). Assays were carried out at 25° C. and in the presence of Itk (30 nM). An assay stock buffer solution was prepared containing all of the reagents listed above, with the exception of ATP and the test compound of interest. 25 μL of the stock solution was placed in each well of a 96 well plate followed by 1 μL of DMSO containing serial dilutions of the test compound (typically starting from a final concentration of 15 μM) in duplicate (final DMSO concentration 2%). The plate was preincubated for 10 minutes at 25° C. and the reaction initiated by addition of 25 μL ATP (final concentration 100 μM). Background counts were determined by the addition of 5 μL 500 mM EDTA to control wells containing assay stock buffer and DMSO prior to initiation with ATP.
The reaction was stopped after 30 minutes by diluting the reaction 225-fold into MOPS buffer (20 mM MOPS (pH 7.0), 1 mM DTT, 10 mM MgCl2, 0.1% BSA) containing 50 mM EDTA to bring the final concentration of Biotin-SAM68 to 9 nM.
AlphaScreen™ reagents were prepared according to the manufacturers instructions (AlphaScreen™ phosphotyrosine (P-Tyr-100) assay kit, PerkinElmer catalogue number 6760620C). Under subdued lighting, 20 μL of AlphaScreen™ reagents were placed in each well of a white half area 96 well plate (Corning Inc.—COSTAR 3693) with 30 μL of the stopped, diluted kinase reactions. Plates were incubated in the dark for 60 minutes prior to reading on a Fusion Alpha plate reader (PerkinElmer).
After removing mean background values for all of the data points, Ki(app) data were calculated from non-linear regression analysis using the Prism software package (GraphPad Prism version 3.0cx for Macintosh, GraphPad Software, San Diego Calif., USA).

Ki	SMILES
< 1000 nM	COCCCc1cc(Nc2nc3nc4ccccc4c(=O)n3c3ccccc23)n[nH]1 [Compound I-21]
< 1000 nM	Cc1cc(Nc2nc3nc4cc(N)ccc4c(=O)n3c3ccccc23)[nH]n1 [Compound I-3]
< 1000 nM	CCOC(=O)Nc1ccc2c(=O)n3c(nc(Nc4cc(C5CC5)n[nH]4)c4ccccc43)nc2c1 [Compound I-16]
< 1000 nM	Nc1ccc2c(=O)n3c(nc(Nc4cc(C5CC5)[nH]n4)c4ccccc43)nc2c1 [Compound I-1]
< 1000 nM	O=c1c2ccccc2nc2nc(Nc3cc(C4CC4)n[nH]3)c3c(n12)CCCC3 [Compound I-17]
< 1000 nM	O=c1c2ccccc2nc2nc(Nc3cc(C4CC4)n[nH]3)c3c(n12)CCC3 [Compound I-15]
< 1000 nM	O=c1c2ccccc2nc2nc(Nc3cc(C4CC4)n[nH]3)c3ccccc3n12 [Compound I-2]
< 1000 nM	COc1cc2nc3nc(Nc4cc(C5CC5)n[nH]4)c4ccccc4n3c(=O)c2cc1OC [Compound I-10]
< 1000 nM	COc1cc2nc3nc(Nc4cc(C5CCCC5)n[nH]4)c4ccccc4n3c(=O)c2cc1OC [Compound I-11]
< 1000 nM	CC(C)c1cc(Nc2nc3nc4ccccc4c(=O)n3c3ccccc23)[nH]n1 [Compound I-7]
< 1000 nM	O=c1c2ccccc2nc2nc(Nc3cc(C4CCCC4)n[nH]3)c3ccccc3n12 [Compound I-9]
< 1000 nM	O=c1c2ccccc2nc2nc(Nc3cc(CCCO)[nH]n3)c3ccccc3n12 [Compound I-20]
< 1000 nM	COc1cc2nc3nc(Nc4cc(C(C)C)n[nH]4)c4ccccc4n3c(=O)c2cc1OC [Compound I-14]
< 1000 nM	CCCc1cc(Nc2nc3nc4ccccc4c(=O)n3c3ccccc23)n[nH]1 [Compound I-13]

Reference: US7855214B2, “Fused cyclic systems useful as inhibitors of TEC family protein kinases” (Vertex Pharmaceuticals Incorporated, priority 2004, dated 2010)
